Measured values reported in patent US6083692A, “Method of detecting the presence and measuring the quantity of biological polymers” (American Home Products Corporation, priority 1996, dated 2000).

Test system: ATP-dependent exonuclease
Assay: Coupled spectrophotometric assay: ADP formation coupled to NADH oxidation (PK/LDH), read at 340 nm
Assay type: biochemical
Settings: for Product inhibition: observed only upon >50% conversion of the substrates ATP and DNA; for Relative rate of ATP hydrolysis: alone
Protocol: Standard curves were routinely generated by using 0, 2, 6, 10, 14 and 18 μL of 1 ng/μL substrate DNA. Eighty μl of the reaction mix was incubated with up to 20 μl of DNA and dH2 O (total volume of 100 μl) at 25° C. The reactions were quenched with 15 μl of 200 mM EDTA, pH 8.0/NaOH, following a 30 or 40 min incubation. The reactions were read at 340 nm.
The 10× assay buffer contained tris-acetate (pH 7.8/acetate at 25° C.); 330 mM, potassium acetate; 660 mM, magnesium acetate; 100 mM, dithiothreitol; 5 mM, Triton X-100, 0.1%. The reaction mix was prepared as follows, 10× buffer; 0.250 ml, NADH; 0.250 ml (0.64 μmoles), PEP; 25.0 μl (2.4 μmoles), ATP; 75.0 μl (2.5 μmoles), H2 O; 1.305 ml, PK/LDH enzyme mix; 75.0 μl, ATP dependent DNAase; 20.0 μl (200 units).
An enzyme kinetics program ENZFITTER (Elsevier Biosoft) was used to generate a plot (A340 versus ng DNA) of the standard. The slope was calculated following a regression analysis. A similar plot of the sample (A340 versus μL DNA) was also prepared. The slope determined from the regression analysis was used to calculate the concentration of linear DNA in the sample.
A reliable method for quantification requires that the concentration of products formed in the reaction is linear with time, concentrations of enzyme and of substrate. In the present assay, ATP hydrolysis was linear with time. The experiments that generated the data shown in FIG. 2 are a coupled spectrophotometric assay in which the linear DNA content was varied from 2 to 20 ng. Twenty μL aliquots were removed at various times (10, 20, 30 & 60 min), and quenched by mixing with 4 μl of 200 mM EDTA as described in Materials and Methods. The samples were further diluted to 100 μl with water, to facilitate determination of optical density. ATP hydrolysis was linear with time and at least up to 40% substrate converted to products (<0.4 mM ADP and Pi). ADP formation was also linear with several enzyme concentrations. The experiments that generated the data shown in FIG. 3 are a coupled assay system in which the amount of enzyme added to the reaction was varied. The enzyme was diluted using 1× reaction buffer and left on ice prior to its addition to the reaction mixture. The reaction was quenched at 15 min, with EDTA as described in Materials and Methods. ADP formation was linear with several enzyme concentrations at least until 0.36 mM ADP and Pi was formed in the reaction. The reaction rates were slower when ~60% of the substrates (100 ng DNA and 1 mM ATP) were converted to products. […] The Vmax was 30 nmoles/min/mg enzyme. In the experiments that generated the data in FIG. 4, the reaction was carried out in a coupled assay as described in the Methods. The reactions were initiated by the addition of enzyme. Following initiation of the 500 μl reaction; 100 μl samples were withdrawn at 1, 2, 5 and 10 min and quenched with 10 μl of 200 mM EDTA. Initial velocities were derived from the reaction rate, obtained by linear regression analysis of absorbances at 340 nm recorded at various times during the reaction. […] The data reported in FIG. 5A is replot of FIG. 2 as a function of linear DNA content in the reaction mixture. In the experiments which generated these date, the 20 μl aliquots were quenched with EDTA as described above, at various times of incubation. […] The results are consistent with the potential use of this enzyme to quantify linear DNA content.

[1] = 50 ng linear DNA as substrate, +10 mM EDTA or +1 mM citrate

## Nc1ncnc2c1ncn2[C@@H]1O[C@H](COP(=O)(O)OP(=O)(O)O)[C@@H](O)[C@H]1O [ADP, adenosine diphosphate]
  Product inhibition: Product inhibition

## O=C(O)CN(CCN(CC(=O)O)CC(=O)O)CC(=O)O [EDTA]
[1]
  Relative rate of ATP hydrolysis: 0.008
At molar equivalent to the divalent cation used in the assay
  Effect on the enzymatic reaction: quenched the enzymatic reaction

## O=P(O)(O)O [Pi, inorganic phosphate]
  Product inhibition: Product inhibition

## O=C(O)CC(O)(CC(=O)O)C(=O)O [citrate]
[1]
  Relative rate of ATP hydrolysis: 0.686
Citrate at 50 μM
  Enhancement of enzymatic activity: ~50%
Citrate at 1 mM in the presence of 10 mM Mg++
  Inhibition of ATP hydrolytic activity: 30%

## CCO [ethanol]
5 ng linear DNA as substrate, +200 ng t-RNA, +500 ng circular DNA or +5% ethanol
  Relative rate of ATP hydrolysis: 0.86
10 ng linear DNA as substrate, +200 ng t-RNA, +500 ng circular DNA or +5% ethanol
  Relative rate of ATP hydrolysis: 1.78
15 ng linear DNA as substrate, +200 ng t-RNA, +500 ng circular DNA or +5% ethanol
  Relative rate of ATP hydrolysis: 2.64
Concentrations beyond 4% ethanol
  Effect on enzymatic activity: severely inhibited
